From PubChem BioAssay (NCI)
Values joined by “and” are separate entries in the source; they are usually repeats but may differ in a detail not shown here. Identical values can stand only once.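 Test compounds were applied to cells in 96-well plates for 48 hours at 5 doses. At the GI50, growth is halved. TGI is the concentration that stops growth completely.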

Key:
Assay in all cases: growth of human tumour cells (NCI), 48 h
[1] = test system: MCF7 breast
[2] = test system: T-47D breast
[3] = test system: MDA-MB-435
[4] = test system: MDA-MB-231 breast
[5] = test system: DU-145 prostate
[6] = test system: DMS 273 small cell lung
[7] = test system: DLD-1 colon
[8] = test system: M19-MEL melanoma
[9] = test system: KM20L2 colon

Structure (SMILES)	GI50 [1] [µM]	TGI [1]	GI50 [2] [µM]	TGI [2]	GI50 [3] [µM]	TGI [3]	GI50 [4]	TGI [4]	GI50 [5] [µM]	TGI [5]	TGI [6] [µM]	TGI [7] [µM]	TGI [8] [µM]	TGI [9] [µM]
C(=N\Nc1nnn(Cc2ccccc2)n1)/c1ccccc1	2.41	> 64.2 µM	4.04	> 100 µM	0.367	2.76 µM	7.54 µM	> 79.6 µM	6.73	> 100 µM				
COC(=O)C1(C(=O)OC)CC(=O)c2cc3c(cc2-c2c(cc(OC)c(OC)c2OC)C1)OCO3											> 211	> 211	> 211	> 211
CN(C)C(=O)O[C@H]1CN[C@H](C#Cc2cc3ncnc(Nc4ccc(OCc5cccc(F)c5)c(Cl)c4)c3s2)C1	14.6	> 25 µM	2.98	> 25 µM	> 25	> 25 µM	4.14 µM	11.6 µM	9.76	> 25 µM				
CCOC(=O)/C(C#N)=C\C=C(/Cl)c1ccc(Cl)cc1	25.6	> 78.7 µM	2.83	10.7 µM	10.5	32.9 µM	22.1 µM	45.9 µM	12.9	25.5 µM				
C=C1C(=O)O[C@H]2[C@H]1CC/C(COC(=O)NCC(C)c1ccc(CC(C)C)cc1)=C\CC[C@@]1(C)O[C@@H]21 (stereo partly drawn)	0.902	4.18 µM	2.2	7.83 µM	1.24	4.86 µM	0.612 µM	1.27 µM	2.93	6.95 µM				
CCOC(=O)C(NC(=O)c1nc[nH]c1[N+](=O)[O-])C(C)C (stereo not drawn)											> 100	> 100	> 100	
O=C(N/N=C/c1cccc(F)c1)c1ccncc1											> 100	> 100		> 100
O=S(=O)(NCCCNc1nccc(-c2c(-c3ccc(F)cc3)nc3sccn23)n1)c1ccc2ccccc2c1	3.71	> 100 µM	2.85	> 100 µM	3.67	> 100 µM	3.8 µM	> 100 µM	5.53	> 100 µM				
O=C1OCC2=C1C(c1ccccc1)c1cc3c(cc1N2CCO)OCO3 (stereo not drawn)	1.76	> 50 µM	3.12	> 50 µM	0.563	3.25 µM	24.8 µM	> 50 µM	10.6	> 50 µM				
Cc1ccccc1NC(=O)C1C(=O)N(c2ccccc2C)C(=O)/C1=N\NC(N)=S (stereo not drawn)											> 100	> 100		> 100
CC(C)CCC1(CCN)C(=O)NC(=O)NC1=O		> 100 µM		> 100 µM		> 100 µM		> 100 µM		> 100 µM				
CCCCn1c(-c2ccc(C(=O)O/N=C(\N)c3ccc4c(c3)OCO4)cc2)nc(-c2ccccc2)c1-c1ccccc1	2.38	8.83 µM	1.85	4.95 µM	1.93	3.9 µM	2.99 µM	> 100 µM	1.65	3.21 µM				
c1c[nH]c(CN2CCOCC2)n1		> 100 µM		> 100 µM		> 100 µM		> 100 µM		> 100 µM				
CC(C)(Oc1ccc(/C=C/C(=O)c2ccc(Cl)cc2)cc1)C(=O)Nc1c(Cl)cccc1Cl												29.2	27.1	46.1
CN1/C(=C\C=C\C2=[N+](C)c3ccccc3C2(C)C)C(C)(C)c2ccccc21	0.127	1.18 µM	0.0179	1.27 µM	0.0739	0.936 µM	0.248 µM	1.58 µM	0.105	12.1 µM				
Cc1ccc(-c2nc3nc(-c4ccc(F)cc4)nc(N4CCCNCC4)c3o2)cc1	1.23	2.96 µM			1.71	3.13 µM	1.63 µM	3.11 µM	1.68	3.11 µM				
Cc1cc(I)cc(CN(C)CCCN2CCCC2)c1O	12.8	29.5 µM	19	57.2 µM	12.9	28.6 µM	18.6 µM	49.9 µM	31.4	> 100 µM				
COc1ccc2c(c1)/C(=C/c1cc(OC)c(OC)c(OC)c1)C(=O)N2	0.35	> 100 µM	0.385		0.0318	0.253 µM	1.51 µM	66.8 µM	0.655	> 100 µM				
c1ccc2[nH]c(-c3ccc(Nc4nc(N5CCCCC5)nc(N5CCOCC5)n4)cc3)nc2c1	2.4	7.9 µM	1.96	4.58 µM	2.06	4.59 µM	2.5 µM	7.52 µM	4.28	> 100 µM				
N#Cc1ccc(NC(=O)C(CC(=O)OCc2ccccc2)NC(=O)OCc2ccccc2)cc1 (stereo not drawn)	> 100	> 100 µM			> 100	> 100 µM	> 100 µM	> 100 µM		> 100 µM				
CCNC(=O)c1noc(-c2cc(C(C)C)c(O)cc2O)c1-c1ccc(CN2CCOCC2)cc1	< 0.0194	> 55 µM	0.0382	47.8 µM	< 0.0167	19.5 µM	0.0747 µM	15.7 µM	< 0.0222	21.1 µM				
O=C(N/N=C/c1ccccc1O)c1ccccc1	2.86	> 100 µM	0.457	> 100 µM	4.68	> 100 µM	5.11 µM	> 100 µM	3.27	> 100 µM				
COC(=O)C1(C)Cc2cc(OC(C)=O)c(OC(C)=O)cc2N1 (stereo not drawn)	3.74	21.6 µM	4.55	> 37.8 µM	6.29	61.5 µM	17.8 µM	56.5 µM	14.1	> 58.9 µM				
CNC(=O)c1nn(C)c2c1C(C)(C)Cc1cnc(Nc3ccc(N4CCN(C)CC4)cc3)nc1-2	0.238	> 10 µM	0.261	> 5.55 µM	0.693	> 10 µM	0.523 µM	> 10 µM	0.995	> 10 µM				

Structure (SMILES)	GI50 [1] [µM]	TGI [1]	GI50 [2] [µM]	TGI [2]	GI50 [3] [µM]	TGI [3]	GI50 [4]	TGI [4]	GI50 [5] [µM]	TGI [5]	TGI [6] [µM]	TGI [7] [µM]	TGI [8] [µM]	TGI [9] [µM]
COc1ccc(C(=O)c2ccc([As]=O)cc2)cc1 (stereo not drawn)	0.0212	0.136 µM	0.0288	0.204 µM	0.121	0.254 µM	0.087 µM	0.242 µM	0.0735	0.198 µM				
NC(=S)NN/C=C(\C=Nc1ccccc1)[N+](=O)[O-]												> 100	> 100	> 100
CC(C)(C)c1cc(C=C(C#N)C#N)cc(C(C)(C)C)c1O		41 µM	0.0679	0.645 µM and 5.07 µM	0.252	29.9 µM and 12.4 µM	0.0923 µM	0.675 µM	0.0894	18.5 µM and 56.8 µM	5.51	42.7		73.2
O=C1CCCCN1CCCCC#Cc1cccc(C#Cc2cccnc2)c1	30.4	> 100 µM	5.66	26 µM	28.9	> 100 µM	12 µM	27.7 µM	43.2	> 100 µM				
Oc1ccccc1-c1nn(CNc2ccccc2Cl)c(=S)o1	40	> 100 µM	13.5	74.9 µM	> 100	> 100 µM	> 100 µM	> 100 µM						
O=C(O)[C@H](c1ccccc1)[C@@H](C(=O)O)c1ccccc1		> 100 µM		> 100 µM		> 100 µM		> 100 µM		> 100 µM				
CCCCCCCCCCCCCCCC[N+]1(C)CCOCC1	2.72	13.2 µM	4.68	25.2 µM			1.39 µM	3.94 µM	2.41	6.79 µM				
O=C(Nc1ccc(Cl)c(Cl)c1)NS(=O)(=O)c1cnccc1Oc1ccc(F)cc1	2.37	7.8 µM	2.8	8.54 µM	2.98	12.2 µM	5.5 µM	38.5 µM	4.19	28.8 µM				
N#CNC(N)=Nc1ccc(Cl)cc1		> 100 µM		> 100 µM		> 100 µM		> 100 µM		> 100 µM				
O=C(O)c1ccccc1/C=N/N=C1c2ccccc2-c2ccccc21		> 100 µM		> 100 µM		> 100 µM		> 100 µM		> 100 µM				
O=S(=O)(CCCl)c1ccc(Cl)cc1	2.19	10.3 µM	3.69	19.9 µM	2.7	12.6 µM	2.55 µM	9.03 µM	3.33	12.3 µM				
CCOC(=O)NC(=O)c1cn(CCN2CCN(C(=O)CCCCCCCCCCC(=O)N3CCN(CCn4cc(C(=O)NC(=O)OCC)c(=O)[nH]c4=O)CC3)CC2)c(=O)[nH]c1=O												> 100	> 100	
CC(C)(C)OC(=O)NCCCCCCCn1c2c(c3ccccc3c1=O)C(=O)c1ccccc1-2	55.4	> 100 µM	16.4	78.1 µM	82	> 100 µM	29.5 µM	> 100 µM	31.8	> 100 µM				
Cc1ccc(NC(=O)c2cc(S(=O)(=O)N3C(=O)NC(=O)NS3(=O)=O)c(S)cc2Cl)cc1	28	> 100 µM	21.4	81.3 µM	17.1	35.7 µM	20.4 µM	57.9 µM	23.2	64 µM				
CCC1=CC2CN(C1)Cc1c([nH]c3ccccc13)[C@@](C(=O)OC)(c1cc3c(cc1OC)N(C)[C@H]1[C@@](O)(C(=O)OC)[C@H](OC(C)=O)[C@]4(CC)C=CCN5CC[C@]31[C@@H]54)C2 (stereo partly drawn)	< 0.005	50 µM and > 100 µM	0.00507	50 µM	< 0.005		0.0182 µM and 0.0211 µM	5.74 µM and 0.873 µM						
O=C(O)[C@@H](Cc1ccc2ccccc2c1)NC(=O)n1c2ccccc2c2ccccc21	2.42	> 100 µM	11.6	> 100 µM	1.09	3.39 µM	3.65 µM	17.3 µM	3.4	> 100 µM				
O=C(N[C@@H](C[Se][Se]C[C@H](NC(=O)c1ccc(Br)cc1F)C(=O)O)C(=O)O)c1ccc(Br)cc1F	60.8	> 100 µM	> 100	> 100 µM	> 100	> 100 µM	> 100 µM	> 100 µM	> 100	> 100 µM				
CCN(C(=O)/C=C/c1ccco1)c1ccccc1		> 100 µM		> 100 µM		> 100 µM		> 100 µM		> 100 µM				
C[C@H]1CCCC(O)C(O)[C@@H]2C[C@H](O[Si](C)(C)C(C)(C)C)C[C@H]2[C@H](O[Si](C)(C)C(C)(C)C)C(O)C(O)C(=O)O1 (stereo partly drawn)	50.2	> 100 µM	28.4	> 100 µM	> 100	> 100 µM	14.2 µM	38.5 µM	28.3	> 100 µM				
C=C1C(=O)O[C@H]2[C@H]1CC/C(C=Nc1c(N)cc(C(F)(F)F)cc1Br)=C\CC[C@@]1(C)O[C@@H]21	0.982	4.48 µM	1.45	3.42 µM	1.86	5.74 µM	1.33 µM	3.15 µM	1.48	2.95 µM				
COc1cc(NCCCCCCCNC(C)C)c2nccc(C)c2c1	2.68	10.8 µM	5.44	19.8 µM	6.95	21.2 µM	9.45 µM	22.4 µM	17	31.4 µM				
O=c1oc2ccc(I)cc2c(=O)n1-c1ccc(Cl)cc1F	2.36	36.5 µM	1.26	6.44 µM	1.9	10.3 µM	1.27 µM	5.71 µM	2.28	21.7 µM				
COc1cnc2c(c1)C(=O)c1c-2n(CCCN2CCN(C)CC2)c(=O)c2cc([N+](=O)[O-])ccc12	0.0162	1.2 µM	1.77	4.01 µM	0.166	0.334 µM			0.22	0.587 µM				
CC(=O)c1ccc(O)c(CN(C2CCCCC2)C2CCCCC2)c1O		> 100 µM		> 100 µM		> 100 µM		> 100 µM		> 100 µM				
